# Values quoted from earlier work in patent publication US20220351806A1, “Biomarker Panels for Guiding Dysregulated Host Response Therapy” (Endpoint Health Inc., priority 2019, published 2022).
# Key:
# [1] = tested on: septic animals; details: exogenous TFPI expressed in mammalian cells and/or Escherichia coli; cited from earlier work
# [2] = tested on: oncologic and lymphopenic patients; details: over 390 oncologic and lymphopenic patients; cited from earlier work
# [3] = tested on: acid-induced lung injury; details: rats, cited from earlier work
# [4] = tested on: shock events induced by endotoxin; details: rats, preventive administration, injected endotoxin; cited from earlier work
compound,measurement,setting,value
tifacogin,outcome in septic animals,[1],coli improved
CYT-107,immunity,[2],"counts, and improved"
same,safety,[2],"safe, invariably"
CCOC(=O)[C@H](Cc1ccccc1)NC(=O)c1cc(Cl)c(OCCN2CCN(C)CC2)c(Cl)c1O.Cl.Cl [JTE 607],"production of inflammatory cytokines (tumor necrosis factor-alpha, interleukin-6, cytokine-induced neutrophil chemoattractant)",[3]; acid-induced lung injury,inhibit the production
same,acid-induced lung injury,[3],attenuate acid-
CC1C(=O)OC2C(O)C34C5CC(C(C)(C)C)C36C(OC(=O)C6O)OC4(C(=O)O5)C12O (stereo not drawn) [BN 52021],release of thromboxane and prostaglandin factor 1-α (PGF1-α),[4],reduced.
